The format of series [1] is in vitro ADME. The procedure:
For the quality control of labeling, a double-phase paper chromatography on Xinhua no. 1 filter paper was performed to measure labeling efficiency and radiochemical purity, with acetone and ethanol: ammonia: water (2∶1∶5) as mobile phase. A sample of 100 µL ^99mTc-RRL at room temperature was used to observe the in vitro stability. And the in vitro stability was also determined by incubating 100 µL ^99mTc-RRL with 900 µL of normal saline at room temperature and 900 µL of freshly collected serum at 37°C, respectively. The three aliquots were then analyzed at 0, 1, 2, 4 and 6 h by paper chromatography.

For series [2], the system named is HepG2 xenografts. Put plainly: Planar gamma imaging of tumor xenografts. It is filed as in vivo, BALB/c nu/nu mice. The protocol: 12 BALB/c nu/nu mice with HepG2 xenografts were divided into 4 groups of 3 mice each (experimental, blocking, control and micro-PET group). The tumors were about 1 cm diameter for planar gamma or micro-PET imaging.
In experimental group, 7.4 MBq ^99mTc-RRL (100 µl, diluted with phosphate buffer, pH 7.4), which were purified and separated by Sephadex G25 gel-filtration column, were then injected into each mouse via lateral tail vein. In blocking group, 500 µg unlabeled RRL was injected 30 minutes before injection of ^99mTc-RRL. In control group, each mouse was only administered with 7.4 MBq Na^99mTcO4. All injections were successful with no leakage.
A whole-body planar imaging was performed at 1, 2, 4 and 6 h after injection in the Department of Nuclear Medicine, Peking University First Hospital, using SPECT (SPR SPECT; GE Healthcare, Inc.) equipped with a low-energy, high-resolution, parallel-hole collimator. Planar images were acquired 200,000 counts with a zoom factor of 2.0, and were digitally stored in a 256×256 matrix size.

Series [3] is described as follows: In vitro stability at room temperature, neat and in normal saline (radiochemical purity by paper chromatography). The conditions noted are these: analysed at 0, 1, 2, 4 and 6 h by paper chromatography, average of 3 sampling points. It is filed as physicochemical. The procedure: For the quality control of labeling, a double-phase paper chromatography on Xinhua no. 1 filter paper was performed to measure labeling efficiency and radiochemical purity, with acetone and ethanol: ammonia: water (2∶1∶5) as mobile phase.
A sample of 100 µL ^99mTc-RRL at room temperature was used to observe the in vitro stability. And the in vitro stability was also determined by incubating 100 µL ^99mTc-RRL with 900 µL of normal saline at room temperature and 900 µL of freshly collected serum at 37°C, respectively. The three aliquots were then analyzed at 0, 1, 2, 4 and 6 h by paper chromatography.

Series [4] concerns mice bearing HepG2 xenografts. Also on record: species or system BALB/c nu/nu mice. Particulars: mouse, in vivo. An excerpt: BALB/c nu/nu mice (female, 18 ± 2 g, 3- to 4-wk-old; Department of Laboratory Animal Science, Peking University First Hospital) were used in this study. The mice were inoculated with 1×10^7 HepG2 cells in the right upper limbs, and the tumors were allowed to grow to about a 1 cm diameter for largest diameter which could be measured. The mice were maintained using a standard diet, bedding and environment, with free access to food and drinking water.
40 BALB/c nu/nu mice with HepG2 xenografts were randomly divided into 8 groups (6 experimental groups, 1 blocking group and 1 control group) of 5 mice each. The experimental groups were treated with ^99mTc-RRL directly, and the blocking group was treated with excessive unlabeled RRL (500 µg, dissolved in 50 µL, 0.5 M, pH = 7.4 phosphate buffer) from lateral tail vein 30 minutes before injection of the radiolabeled derivative. The control group was administered with Na^99mTcO4 only.
The radiolabeled compounds were purified and isolated from the Sephadex G25 gel-filtration column, 1,850 kBq of ^99mTc-RRL was injected into each mouse via the lateral tail vein. All injections were successful with no leakage. The animals of 6 experimental groups were sacrificed by cervical dislocation at 15 min, 30 min, 1, 2, 4 and 6 h after injection, respectively. At 6 h, the blocking and control group were also studied.
The mice were dissected and tissues of interest (blood, heart, liver, spleen, lung, kidney, stomach, small intestine, bladder, bone, skeletal muscle and tumor) were weighed, and their radioactivity was measured using a γ-well counter, which was equipped with a NaI(Tl) crystal detector and coupled to a high gain PMT for maximum efficiency of 80%, along with a standard solution of the injection. Radioactivity results were recorded as the percentage injected activity per gram (%ID/g) of tissue corrected for background and decay.

Bridges are numbered along the chain shown (N, C = ends). Where no end group is shown, it is not given here. [ ]: non-standard residue; d: D form.

We go through one substance from PMC3616001, “A Novel ^99mTc-Labeled Molecular Probe for Tumor Angiogenesis Imaging in Hepatoma Xenografts Model: A Pilot Study” (PLoS ONE, 2013).

Consider “G[dA]GGK[dS][dS]CGGRRLGGC-NH2 (disulfide 8-16 (inferred)) [^99mTc-RRL, cyclic (disulfide) RRL peptide radiolabeled with 99mTc by a one-step method]”, for which the “Radiochemical purity over 6 hours in fresh 37°C serum” value in series [1] is on record as “more than 93%”. Further, the “Tumor visualisation in planar gamma imaging, blocking group” value in series [2] (500 µg unlabeled RRL injected 30 minutes before 7.4 MBq tracer, any time after injection) is reported as “not shown clearly”. Besides, in series [2] (experimental group, 7.4 MBq i.v., at 2–6 h after administration), the “Tumor visualisation in planar gamma imaging” value is reported as “imaged clearly”. Also, the “Radiochemical purity over 6 hours at room temperature (RT)” value in series [3] (100 µL sample at room temperature) is on record as “more than 93%”. Moreover, the “Radiochemical purity over 6 hours in normal saline (NS) at RT” value in series [3] (100 µL with 900 µL normal saline at room temperature) was “more than 93%”. For the same substance, in series [4], the “Blood clearance: tracer cleared from blood” value is listed as “more than 71.3%”, the Ratio of tumor-to-blood came out at 1.95, the Ratio of tumor-to-liver was found to be 1.98 and the Ratio of tumor-to-muscle result is “exceeded 6.5”. The “Tracer cleared from tumor” value in series [4] is “less than 4.39%”.
